Data published in patent publication US20260306490A1, “PIM1 INHIBITOR FOR TREATING MYELOPROLIFERATIVE NEOPLASMS” (Sumitomo Pharma America, Inc., priority 2022, published 2026).

System: MF patients
Test: Phase 1/2 clinical study in MF patients treated with HCl salt of Compound (1) (TP-3654-102)
Type: in vivo, human
Parameters: reduction in IL6 / reduction in IL12p40 / reduction in MMP9 / reduction in EN-RAGE / median TSS reduction from baseline: concentration or dose not given beside the values
Experimental: Patients with MF (primary MF, post-PV MF, post-ET MF) and DIPSS intermediate-1, intermediate-2, or high risk were enrolled in a Phase 1/2 clinical study.
Dose escalation to 960 mg BID and 1440 mg BID is intended.
Patients had to meet all of the following inclusion criteria to enroll in the study: • 1. Adult (≥18 years of age) • 2. Confirmed pathological diagnosis of primary MF (PMF) or post-PV-MF/postET-MF as per WHO diagnostic criteria and intermediate or high-risk primary or secondary MF based on the Dynamic International Prognostic Scoring System (DIPSS). • 3. Previously treated with a JAK inhibitor and are intolerant, resistant, refractory or lost response to the JAK inhibitor, or are ineligible to be treated with ruxolitinib or fedratinib at the discretion of the investigator. • 4. Grade≥2 bone marrow fibrosis, as confirmed by bone marrow biopsy within 12 weeks prior to Screening. • 5. Fulfill the following laboratory parameters: • a. Platelet count≥25×10^9/L (without the assistance of growth factors or platelet transfusions) • b. Absolute neutrophil count (ANC)≥1×10^9/L without the assistance of granulocyte growth factors. • 6. Peripheral blood blast count<10%. • 7. Eastern Cooperative Oncology Group (ECOG) performance status≤2. • 8. Life expectancy≥3 months. • 9. […] Adequate hepatic function (ALT/AST≤3×ULN, total bilirubin≤1.5×ULN; or ALT/AST≤5×ULN, direct bilirubin≤2×ULN if due to MF); and coagulation ([PT and PTT]≤1.5×ULN). • 11. Agree to provide bone marrow biopsies during the study: at baseline or within 12 weeks prior to enrollment, and every 6 months during treatment. • 12. Capable of providing signed informed consent as described in which includes compliance with the requirements and restrictions listed in the informed consent form (ICF) and in this protocol • 13. […] Show at least 2 symptoms measurable (score≥1) using the Myelofibrosis Symptom Assessment Form (MFSAF), v4.0. • 16. Able to take orally administered medication
Patients meeting any one of the exclusion criteria were prohibited from participating in the study: • 1. Received previous systemic antineoplastic therapy (including unconjugated therapeutic antibodies, toxin immunoconjugates, ESA, and alpha-interferon) or any experimental therapy within 14 days or 5 half-lives, whichever is longer, before the first dose of study treatment. • 2. Major surgery within 2 weeks before the first dose of either study drug. • 3. Splenic irradiation within 6 months prior to Screening or prior splenectomy. • 4. AML, MDS, or peripheral blasts≥10%. • 5. Prior autologous or allogeneic stem cell transplant at any time. • 6. Eligible for allogeneic bone marrow or stem cell transplantation within 3 months following enrollment (not a candidate or not willing to undergo transplantation or a suitable donor not available are considered as transplant ineligible). • 7. Currently receiving treatment with a prohibited medication that cannot be discontinued at least one week prior to the start of treatment. • 8. Experiencing electrolyte abnormalities of NCI CTCAE Grade≥2 (e.g., serum potassium, magnesium and calcium) unless they can be corrected during screening and are deemed not clinically significant by the Investigator. • 9. History of congestive heart failure, myocardial infarction within the past 6 months prior to Cycle 1/Day 1; left ventricular ejection fraction<45% by echocardiogram or MUGA, unstable arrhythmia, or evidence of ischemia on electrocardiogram (ECG) within 14 days prior to Cycle 1/Day 1. • 10. Corrected QT interval (using Fridericia's correction formula) of >450 msec in men and >470 msec in women. • 11. Central nervous system (CNS) cancer or metastases, meningeal carcinomatosis, malignant seizures, or a disease that either causes or threatens neurologic compromise (e.g., unstable vertebral metastases). • 12. Other invasive malignancies within the last 3 years, except non-melanoma skin cancer, and localized cured prostate and cervical cancer • 13. […]

[1] = R/R MF, ≥25 × 10^9/L PLT, monotherapy
[2] = TP-3654-102, R/R MF, monotherapy, N = 23
[3] = first interim analysis, FIG. 5G
[4] = first interim analysis, monotherapy, 480 mg QD to 720 mg BID
[5] = first interim analysis, over treatment duration
[6] = first interim analysis, treatment duration ≥12 weeks
[7] = one patient with bone marrow fibrosis reduction
[8] = second interim analysis, MFSAF v4.0
[9] = second interim analysis, n = 13

Compound: CC(C)(O)[C@H]1CC[C@H](Nc2ccc3ncc(-c4cccc(C(F)(F)F)c4)n3n2)CC1 [Compound (1)]
- Hem AE (>10%), thrombocytopenia (R/R MF, Ph 1): No ≥G3
- SVR35 at Week 24 [1]: 23%
- TSS50 at Week 24 [1]: 54%
- TEAE Anemia, All Gr [2]: 13%
- TEAE Anemia, ≥3 Gr [2]: 4.3%
- TEAE Neutropenia, All Gr [2]: 0%
- TEAE Neutropenia, ≥3 Gr [2]: 0%
- TEAE Thrombocytopenia, All Gr [2]: 22%
- TEAE Thrombocytopenia, ≥3 Gr [2]: 13%
- patients with myelosuppressive adverse events (anemia, neutropenia, thrombocytopenia) (first interim analysis): 1 patient
- time at which cytokine modulation was observed (as early as) (first interim analysis): ≤ 24 h
- patients with reduced spleen size and reduced symptoms [3]: 4 patients
- patients with spleen volume increase and reduced symptoms [3]: 1 patient
- patients with spleen volume reduction and increased symptoms [3]: 1 patient
- reductions in cytokines vs total symptoms reduction (first interim analysis, cytokine changes available for 7 patients): More reductions in cytokines were observed in patients who had more total symptoms reduction
- hemoglobin [4]: increased in some patients
- neutrophil counts [4]: stable
- platelet counts [4]: stable or increased
- spleen volume, median best change [5]: −13%
- total symptom score, median best change [5]: −70%
- patients with spleen volume reduction [6]: Eight out of 10
- patients with total symptom reduction [6]: Nine out of 10
- change for platelet count, hemoglobin, and neutrophil reduction (for most patients, monotherapy): less than 1 grade
- reduction in EN-RAGE [7]: 68%
- reduction in IL12p40 [7]: 83%
- reduction in MMP9 [7]: 56%
- reduction in IL6 (one patient with bone marrow fibrosis reduction, printed 1L6): 68%
- bone marrow fibrosis reduction (one patient, on active treatment >18 months): from grade 3 to 2
- overlapping hematological toxicities (thrombocytopenia and/or anemia) (relative to toxicities reported for other MF treatments): minimal or no indication of overlapping hematological toxicities
- patients achieving ≥35% SVR (number) (second interim analysis): 3 of 13
- median spleen volume change (second interim analysis, 13 evaluable patients): −11%
- dose limiting toxicities (second interim analysis, 23 patients, 5 dose levels): no dose limiting toxicities
- median TSS reduction from baseline [8]: 70%
- patients with TSS reduction [8]: 12 out of 13
- patients with ≥50% TSS reduction (number) [8]: Seven of 13
- patients achieving ≥35% SVR (percent) [9]: 23%
- patients with ≥50% TSS reduction (percent) [9]: 54%
- patients with ≥50% TSS reduction and durable response for ≥12 weeks (second interim analysis, of seven patients with ≥50% TSS reduction): 5 patients
- patients with spleen volume reduction (SVR) (second interim analysis, ≥12 weeks of treatment, 13 evaluable): 10 patients
- doses declared safe (second interim analysis, printed mg BTD): up to 720 mg
